# In patent publication US12012387B2, “Triazine compound and use thereof” (priority 2018, dated 2024):
# Legend:
# trypsin = experiment: Stability against protease (radial diffusion assay after trypsin treatment); format: in vitro ADME; settings: 24 hours after trypsin culture; FIG. 2
# Method: To confirm the stability against the protease, trypsin degradation was identified by using a radial diffusion assay method after treatment with each of the triazine compounds of the following example. Specifically, the cultured strains (Escherichia coli) were incubated in 10 mL of LB medium at 37° C. for 18 hours, after which 10 μl of the culture fluid was inoculated into 10 mL of fresh BL medium and then further incubated for three hours, so as to obtain bacteria in a mid-logarithmic phase. For the radial diffusion assay method, a bacterial suspension (2×10^6 CFU/mL in LB) was mixed with 0.7% agarose and rapidly dispersed, after which the resulting mixed solution was poured into a 10 cm-long Petri dish. Each 5 μl of the triazine compound solution (10 mg/mL) of the following example was added to 25 μl of trypsin solution (0.2 μg/mL in PBS), and incubated at 37° C. for six hours. A reaction was terminated by freezing with liquid nitrogen, after which each 10 μl was taken, seeded on circular paper having a diameter of 6 mm placed on the Petri dish containing the agarose, and incubated overnight at 37° C. To quantify the inhibitory activity, the clearance zones of bacteria around the circular paper were measured to confirm the antibacterial activity. As a control group, melittine was used.
# [1] = system: Gram-negative bacteria and Gram-positive bacteria; experiment: Antibacterial activity, MIC over the four strains (GM); format: cell-based; settings: mean of the MIC values of the four strains
# Method: To confirm the antibacterial activity, a minimal inhibitory concentration (MIC) value, which is a minimum concentration at which fungus bodies are not divided, was measured. Specifically, the strains disclosed in the following table 1 were purchased, incubated in each medium up to a mid-log phase, diluted to a fungus body concentration of 2×10^5 cells/100 μl, and inoculated into a micro titrate plate (Nunc, USA). […] A control group was treated with melittine by the same method as above, so as to determine an MIC value for each strain.
structure (smiles),measurement,setting,value
CC[C@H](C)[C@H](NC(=O)CN)C(=O)NCC(=O)N[C@@H](C)C(=O)N[C@H](C(=O)N[C@@H](CC(C)C)C(=O)N[C@@H](CCCCN)C(=O)N[C@H](C(=O)N[C@@H](CC(C)C)C(=O)N[C@H](C(=O)N[C@H](C(=O)NCC(=O)N[C@@H](CC(C)C)C(=O)N1CCC[C@H]1C(=O)N[C@@H](C)C(=O)N[C@@H](CC(C)C)C(=O)N[C@H](C(=O)N[C@@H](CO)C(=O)N[C@@H](Cc1c[nH]c2ccccc12)C(=O)N[C@H](C(=O)N[C@@H](CCCCN)C(=O)N[C@@H](CCCNC(=N)N)C(=O)N[C@@H](CCCCN)C(=O)N[C@@H](CCCNC(=N)N)C(=O)N[C@@H](CCC(N)=O)C(=O)N[C@@H](CCC(N)=O)C(N)=O)[C@@H](C)CC)[C@@H](C)CC)[C@@H](C)O)[C@@H](C)O)C(C)C)C(C)C [Melittin],antibacterial activity against E. coli after trypsin culture,trypsin,remarkable decrease in the antibacterial activity
same,GM,[1],3.8 µM
